Data as given in the supplement of paper PMC7840683.
Structures can show the parent of a compound that is named as a salt.

Tested on: HepaRG
Assay: LDH release cytotoxicity, % of total lysis control; higher = more cytotoxic
Details: 48 h
Outline: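 Duplicate wells of single-lot HepaRG cells, grown on collagen I-coated 96-well plates, received eight-point half-log series of test chemicals with 100 µM as the top concentration. Exposure lasted 48 h in serum-free induction medium with 0.5% DMSO, while total lysis wells received 0.1% Triton X. Resorufin fluorescence (CytoTox-ONE, Tecan Safire) was used to quantify LDH leaked into 50 µL of spent medium. Values for percent cytotoxicity were normalized to on-plate vehicle and total lysis controls and averaged across the duplicates.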

CC(=O)O [Acetic acid]
Details | LDH release cytotoxicity [%]
0.0317809 µM | -1.92
0.1005 µM | -2.2
0.317809 µM | -1.18
1.005 µM | -1.23
3.17809 µM | -0.0523
10.05 µM | -0.22
31.7809 µM | -0.0673
100.5 µM | 1.25

CCOCN(C(=O)CCl)c1c(C)cccc1CC [Acetochlor]
Details | LDH release cytotoxicity [%]
0.03162 µM | -0.907
0.1 µM | -1.94
0.3162278 µM | -0.877
1 µM | -0.999
3.16228 µM | -1.55
10 µM | -0.606
31.6228 µM | 0.268
100 µM | 56.1

CC(=O)c1ccccc1 [Acetophenone]
Details | LDH release cytotoxicity [%]
0.03162 µM | -2.51
0.1 µM | -2.44
0.3162278 µM | -2.72
1 µM | -2
3.16228 µM | -2.1
10 µM | -1.71
31.6228 µM | -1.38
100 µM | -0.356

CCCCOC(=O)CC(CC(=O)OCCCC)(OC(C)=O)C(=O)OCCCC [Acetyl tributyl citrate]
Details | LDH release cytotoxicity [%]
0.03162 µM | -1.13
0.1 µM | -1.34
0.3162278 µM | -1.35
1 µM | -1.86
3.16228 µM | -1.7
10 µM | -0.33
31.6228 µM | -0.458
100 µM | 0.439

CCOC(=O)CC(CC(=O)OCC)(OC(C)=O)C(=O)OCC [Acetyltriethyl citrate]
Details | LDH release cytotoxicity [%]
0.03162 µM | -2.01
0.1 µM | -1.76
0.3162278 µM | -1.48
1 µM | -1.13
3.16228 µM | -0.615
10 µM | -1.09
31.6228 µM | 0.655
100 µM | 0.942

CSC(=O)c1cccc2nnsc12 [Acibenzolar-S-methyl]
Details | LDH release cytotoxicity [%]
0.03162 µM | -0.11
0.1 µM | -0.574
0.3162278 µM | -0.682
1 µM | -0.324
3.16228 µM | -0.302
10 µM | -0.414
31.6228 µM | 0.737
100 µM | 1.4

C=CC(N)=O [Acrylamide]
Details | LDH release cytotoxicity [%]
0.03162 µM | -0.83
0.1 µM | -1.21
0.3162278 µM | -1.5
1 µM | -1.596
3.16228 µM | -1.78
10 µM | -0.843
31.6228 µM | -1.75
100 µM | -0.493

CCc1cccc(CC)c1N(COC)C(=O)CCl [Alachlor]
Details | LDH release cytotoxicity [%]
0.031623 µM | -1.16
0.1 µM | -1.83
0.316228 µM | -2.33
1 µM | -2.4
3.16228 µM | -2.62
10 µM | -2.23
31.6228 µM | -2.51
100 µM | -0.425

CSC(C)(C)CN=O [Aldicarb oxime]
Details | LDH release cytotoxicity [%]
0.03162 µM | -1.16
0.1 µM | -1.16
0.3162278 µM | -0.361
1 µM | 0.251
3.16228 µM | -0.674
10 µM | 0.43
31.6228 µM | 0.225
100 µM | 0.822

CNC(=O)ON=CC(C)(C)SC [Aldicarb]
Details | LDH release cytotoxicity [%]
0.03162 µM | -1.61
0.1 µM | -1.37
0.3162278 µM | -2.06
1 µM | -1.68
3.16228 µM | -1.686
10 µM | -0.703
31.6228 µM | -1.04
100 µM | -0.341

ClC1=C(Cl)C2(Cl)C3C4C=CC(C4)C3C1(Cl)C2(Cl)Cl (stereo not given) [Aldrin]
Details | LDH release cytotoxicity [%]
0.03162 µM | -1.03
0.1 µM | -1.22
0.3162278 µM | -1.42
1 µM | -2.25
3.16228 µM | -1.19
10 µM | -0.76
31.6228 µM | -1.01
100 µM | 3.93

C=CCC1=C(C)C(OC(=O)C2C(C=C(C)C)C2(C)C)CC1=O (stereo not given) [Allethrin]
Details | LDH release cytotoxicity [%]
0.03162 µM | 0.254
0.1 µM | -0.919
0.3162278 µM | -1.19
1 µM | -0.231
3.16228 µM | -1.87
10 µM | -1.69
31.6228 µM | -0.447
100 µM | -0.904

CCNc1nc(NC(C)C)nc(SC)n1 [Ametryn]
Details | LDH release cytotoxicity [%]
0.03162 µM | -0.705
0.1 µM | -1.179
0.3162278 µM | -1.07
1 µM | -1.09
3.16228 µM | -1.44
10 µM | -0.756
31.6228 µM | -0.965
100 µM | -0.133

Nc1nc(N)c2nc(CNc3ccc(C(=O)NC(CCC(=O)O)C(=O)O)cc3)cnc2n1 (stereo not given) [Aminopterin]
Details | LDH release cytotoxicity [%]
0.03162 µM | -11.8
0.1 µM | -7.61
0.3162278 µM | -7.45
1 µM | -7.83
3.16228 µM | -7.31
10 µM | -9.44
31.6228 µM | -9.84
100 µM | -9.19

Cc1ccc(N=CN(C)C=Nc2ccc(C)cc2C)c(C)c1 [Amitraz]
Details | LDH release cytotoxicity [%]
0.03162 µM | -0.945
0.1 µM | -1.23
0.3162278 µM | -2.67
1 µM | -1.98
3.16228 µM | -2.06
10 µM | -1.45
31.6228 µM | -0.79
100 µM | 1.17

NC(=O)O [Ammonium carbamate]
Details | LDH release cytotoxicity [%]
0.031623 µM | -0.98
0.1 µM | -2.14
0.316228 µM | -3.38
1 µM | -2.11
3.16228 µM | -2.31
10 µM | -1.92
31.6228 µM | -0.516
100 µM | 0.311

O=C(O)C(F)(F)C(F)(F)C(F)(F)C(F)(F)C(F)(F)C(F)(F)C(F)(F)F [Ammonium perfluorooctanoate]
Details | LDH release cytotoxicity [%]
0.03162 µM | -2.46
0.1 µM | -2
0.3162278 µM | -1.7
1 µM | -2.4
3.16228 µM | -1.55
10 µM | -1.1
31.6228 µM | -0.665
100 µM | 5.278

Clc1nc(Cl)nc(Nc2ccccc2Cl)n1 [Anilazine]
Details | LDH release cytotoxicity [%]
0.03162 µM | 0.501
0.1 µM | 0.704
0.3162278 µM | 0.988
1 µM | 0.786
3.16228 µM | 0.633
10 µM | 0.855
31.6228 µM | 0.799
100 µM | 0.712

c1ccc2cc3ccccc3cc2c1 [Anthracene]
Details | LDH release cytotoxicity [%]
0.031623 µM | -2.31
0.1 µM | -2.92
0.316228 µM | -3.34
1 µM | -2.01
3.16228 µM | -2.51
10 µM | -2.69
31.6228 µM | -1.53
100 µM | 2.42

O=C1c2c(O)cccc2Cc2cccc(O)c21 [Anthralin]
Details | LDH release cytotoxicity [%]
0.03162 µM | -2.38
0.1 µM | -0.784
0.3162278 µM | -1.25
1 µM | -0.891
3.16228 µM | -0.148
10 µM | -1.12
31.6228 µM | -0.933
100 µM | -0.256

CCCCN1C(=O)C(C(O)C2CCCCC2)NC(=O)C12CCN(Cc1ccc(Oc3ccc(C(=O)O)cc3)cc1)CC2 (stereo not given) [Aplaviroc hydrochloride]
Details | LDH release cytotoxicity [%]
0.03162 µM | -1.85
0.1 µM | -1.71
0.3162278 µM | -3.23
1 µM | -2.439
3.16228 µM | -3.02
10 µM | 0.0163
31.6228 µM | 7.4
100 µM | 27.4

CC(=O)Oc1ccccc1C(=O)O [Aspirin]
Details | LDH release cytotoxicity [%]
0.03162 µM | -1.2
0.1 µM | -0.322
0.3162278 µM | 0.562
1 µM | -0.207
3.16228 µM | -0.296
10 µM | -0.207
31.6228 µM | 0.489
100 µM | 2.14

COC(=O)NS(=O)(=O)c1ccc(N)cc1 [Asulam]
Details | LDH release cytotoxicity [%]
0.03162 µM | -0.269
0.1 µM | -1.42
0.3162278 µM | -0.821
1 µM | -0.262
3.16228 µM | -1.05
10 µM | -0.725
31.6228 µM | -0.233
100 µM | 0.635

CCNc1nc(Cl)nc(NC(C)C)n1 [Atrazine]
Details | LDH release cytotoxicity [%]
0.03162 µM | -1.43
0.1 µM | -1.36
0.3162278 µM | -1.63
1 µM | -2.15
3.16228 µM | -1.57
10 µM | -1.86
31.6228 µM | -1.38
100 µM | -0.59

COP(=O)(OC)SCn1c(=O)oc2cc(Cl)cnc21 [Azamethiphos]
Details | LDH release cytotoxicity [%]
0.03162 µM | -1.96
0.1 µM | -2.24
0.3162278 µM | -2.14
1 µM | -1.66
3.16228 µM | -2.14
10 µM | -1.74
31.6228 µM | 1.89
100 µM | 22.6

Cn1cnc([N+](=O)[O-])c1Sc1ncnc2nc[nH]c12 [Azathioprine]
Details | LDH release cytotoxicity [%]
0.0314647 µM | -0.881
0.0995 µM | -1.48
0.3146466 µM | -1.64
0.995 µM | -0.793
3.14647 µM | 1.06
9.95 µM | 4.17
31.4647 µM | 6.78
99.5 µM | 8.21

COP(=S)(OC)SCn1nnc2ccccc2c1=O [Azinphos-methyl]
Details | LDH release cytotoxicity [%]
0.03162 µM | -0.213
0.1 µM | -0.757
0.3162278 µM | -1.67
1 µM | -2.01
3.16228 µM | -0.975
10 µM | 0.0858
31.6228 µM | -0.844
100 µM | 0.533

c1ccc(N=Nc2ccccc2)cc1 [Azobenzene]
Details | LDH release cytotoxicity [%]
0.03162 µM | -1.57
0.1 µM | -1.67
0.3162278 µM | -0.316
1 µM | -2
3.16228 µM | -1.63
10 µM | 0.0427
31.6228 µM | 1.14
100 µM | 3.66

COC=C(C(=O)OC)c1ccccc1Oc1cc(Oc2ccccc2C#N)ncn1 [Azoxystrobin]
Details | LDH release cytotoxicity [%]
0.03162 µM | -1.32
0.1 µM | -1.84
0.3162278 µM | -2.03
1 µM | -2.35
3.16228 µM | -2.2
10 µM | -1.39
31.6228 µM | -1.83
100 µM | 18.63

CNC(=O)Oc1cccc2c1OC(C)(C)O2 [Bendiocarb]
Details | LDH release cytotoxicity [%]
0.031623 µM | -1.26
0.1 µM | -1.64
0.316228 µM | -0.794
1 µM | -1.67
3.16228 µM | -1.78
10 µM | -2.76
31.6228 µM | -2.289
100 µM | -2.6

CCCCN(CC)c1c([N+](=O)[O-])cc(C(F)(F)F)cc1[N+](=O)[O-] [Benfluralin]
Details | LDH release cytotoxicity [%]
0.031623 µM | -0.0474
0.1 µM | -1.73
0.316228 µM | -1.78
1 µM | -2.54
3.16228 µM | -2.56
10 µM | -1.12
31.6228 µM | -1.14
100 µM | -0.374

O=C(Nc1ccccc1)c1ccccc1I [Benodanil]
Details | LDH release cytotoxicity [%]
0.03162 µM | -1.25
0.1 µM | -1.19
0.3162278 µM | -1.59
1 µM | -2.02
3.16228 µM | -0.274
10 µM | 1.86
31.6228 µM | 5.86
100 µM | 12.4

CCCCNC(=O)n1c(NC(=O)OC)nc2ccccc21 [Benomyl]
Details | LDH release cytotoxicity [%]
0.03162 µM | -1.36
0.1 µM | -0.152
0.3162278 µM | -0.651
1 µM | -2.31
3.16228 µM | -1.18
10 µM | 8.93
31.6228 µM | 8.73
100 µM | 9.79

CC(C)N1C(=O)c2ccccc2NS1(=O)=O [Bentazone]
Details | LDH release cytotoxicity [%]
0.03162 µM | -0.772
0.1 µM | -0.547
0.3162278 µM | 0.0696
1 µM | -0.283
3.16228 µM | -0.149
10 µM | 0.303
31.6228 µM | -0.174
100 µM | 2.45

c1ccc2cc3c(ccc4ccccc43)cc2c1 [Benz(a)anthracene]
Details | LDH release cytotoxicity [%]
0.03162 µM | 0.322
0.1 µM | -1.2
0.3162278 µM | -1.02
1 µM | -1.2
3.16228 µM | -0.916
10 µM | -0.353
31.6228 µM | -1.51
100 µM | -1.17
